The record followed here is patent US9751854B2 (Millennium Pharmaceuticals, Inc., priority 2014, dated 2017).

Usually IC50 stands for the concentration that inhibits the measured activity by half. A low value points to higher potency.

For this test, the target named is human VPS34 (Homo sapiens (Human), UniProt Q8NEB9). The test is described as follows: Human VPS34 enzyme assay (Adapta TR-FRET ADP detection). The test is classed as biochemical. Particulars: IC50 range class. On the technique in general: In TR-FRET formats the signal depends on donor and acceptor labels being close together.
Chain of human VPS34 (Q8NEB9 whole entry): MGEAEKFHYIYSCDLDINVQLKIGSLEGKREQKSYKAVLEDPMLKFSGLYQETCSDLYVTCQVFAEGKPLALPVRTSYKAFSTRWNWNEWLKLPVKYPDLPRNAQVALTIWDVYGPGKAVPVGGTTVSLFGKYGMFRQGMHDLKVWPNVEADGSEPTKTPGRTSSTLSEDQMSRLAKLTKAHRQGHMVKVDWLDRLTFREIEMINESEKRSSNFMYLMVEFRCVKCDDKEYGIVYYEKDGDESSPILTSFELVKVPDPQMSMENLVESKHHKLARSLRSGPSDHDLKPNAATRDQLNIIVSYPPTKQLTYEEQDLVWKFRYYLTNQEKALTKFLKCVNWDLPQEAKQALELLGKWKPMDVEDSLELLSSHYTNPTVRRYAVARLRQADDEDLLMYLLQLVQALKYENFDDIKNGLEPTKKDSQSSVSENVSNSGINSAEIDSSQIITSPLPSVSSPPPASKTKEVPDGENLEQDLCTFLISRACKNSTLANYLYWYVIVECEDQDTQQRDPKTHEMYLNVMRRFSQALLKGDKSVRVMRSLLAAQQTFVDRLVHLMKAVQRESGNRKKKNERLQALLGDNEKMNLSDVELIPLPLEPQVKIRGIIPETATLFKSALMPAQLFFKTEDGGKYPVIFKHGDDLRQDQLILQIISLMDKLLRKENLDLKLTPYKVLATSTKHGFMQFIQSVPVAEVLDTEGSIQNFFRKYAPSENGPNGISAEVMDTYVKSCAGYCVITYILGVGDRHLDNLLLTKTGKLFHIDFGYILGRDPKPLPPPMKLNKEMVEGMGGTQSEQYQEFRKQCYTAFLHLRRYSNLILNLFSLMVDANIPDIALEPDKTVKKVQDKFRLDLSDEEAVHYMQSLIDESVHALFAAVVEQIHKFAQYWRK
In the case of `CC(=O)Nc1cc(-c2cnc(N(C)C)c(C(=O)Nc3ccc(F)cc3F)c2)ccn1` [Compound I-112, 2′-acetamido-N-(2,4-difluorophenyl)-6-(dimethylamino)-3,4′-bipyridine-5-carboxamide], the IC50 was 50 to 100 nM.

For the compound `CC(=O)Nc1cc(-c2cnc(C)c(NS(=O)(=O)c3cccc4ccccc34)c2)ccn1` [Compound I-78, N-[6-methyl-5-[(1-naphthylsulfonyl)amino]-3,4′-bipyridin-2′-yl}acetamide], the IC50 was less than 10 nM.

Take `COc1ncc(-c2ccnc(Nc3ccnc(C)n3)c2)cc1S(=O)(=O)NC1CCC1` [Compound I-224, N-cyclobutyl-6-methoxy-2′-[(2-methylpyrimidin-4-yl)amino]-3,4′-bipyridine-5-sulfonamide]: the half-maximal inhibitory concentration (IC50) was 10 to 50 nM.

As for `Cc1ncc(-c2ccnc(NC(=O)C3CC3)c2)cc1NS(=O)(=O)N(C)C` [Compound I-311, N-{5-[(dimethylsulfamoyl)amino]-6-methyl-3,4′-bipyridin-2′-yl)cyclopropanecarboxamide], the IC50 was less than 10 nM.

In turn, `CCOCCS(=O)(=O)c1cc(-c2ccnc(NC(C)=O)c2)cnc1N` [Compound I-145, N-{6-amino-5-[(2-ethoxyethyl)sulfonyl]-3,4′-bipyridin-2′-yl}acetamide] had an IC50 of 50 to 100 nM.

Compound `CC(=O)Nc1cc(-c2cnc(C)c(N3CC=CS3(=O)=O)c2)ccn1` [Compound I-416, N-[5-(1,1-dioxidoisothiazol-2(3H)-yl)-6-methyl-3,4′-bipyridin-2′-yl]acetamide] yielded an IC50 of 10 to 50 nM.

For the compound `CC(=O)Nc1cc(-c2cncc(N(C)C(=O)c3ccc(F)cc3F)c2)ccn1` [Compound I-397, N-(2′-acetamido-3,4′-bipyridin-5-yl)-2,4-difluoro-N-methylbenzamide], the half-inhibitory concentration (IC50) was 50 to 100 nM.

`Cc1nccc(Nc2cc(-c3c[n+]([O-])c(Cl)c(NS(=O)(=O)c4ccc(F)cc4F)c3C)ccn2)n1` [Compound I-454, N-(2-chloro-4-methyl-5-{2-[(2-methylpyrimidin-4-yl)amino)pyridin-4-yl}-1-oxidopyridin-3-yl)-2,4-difluorobenzenesulfonamide] gave an IC50 of less than 10 nM.

In turn, `CC(=O)Nc1cc(-c2cnc(C)c(NS(=O)(=O)c3ccc(F)cc3F)c2)c(C)cn1` [Compound I-177, N-(5-{[(2,4-difluorophenyl)sulfonyl]amino}-5′,6-dimethyl-3,4′-bipyridin-2′-yl)acetamide] displayed an IC50 of 10 to 50 nM.

Turning to `CC(=O)Nc1cc(-c2cnc(C)c(N(CC3CC3)S(=O)(=O)C3CC3)c2)ccn1` [Compound I-83, N-{5-[(cyclopropylmethyl)(cyclopropylsulfonyl)amino]-6-methyl-3,4′-bipyridin-2′-yl}acetamide], the IC50 is greater than 100 nM.

`COc1nccc(Nc2cc(-c3cnc(N)c(C(=O)N(C)C45CC(C4)C5)c3)ccn2)n1` [Compound I-230, 6-amino-N-(bicyclo[1.1.1]pent-1-yl)-2′-((2-methoxypyrimidin-4-yl)amino)-N-methyl-[3,4′-bipyridine]-5-carboxamide] returned an IC50 of 10 to 50 nM.

In the case of `CCc1ncc(-c2ccnc(NC(C)=O)c2)cc1NS(=O)(=O)c1ccc(F)cc1F` [Compound I-201, N-(5-{[(2,4-difluorophenyl)sulfonyl]amino}-6-ethyl-3,4′-bipyridin-2′-yl)acetamide], the IC50 is less than 10 nM.

As for `Cc1nccc(Nc2cc(-c3cncc(OC4CCc5c(F)cccc54)c3)ccn2)n1` (stereo not drawn) [Compound I-440, 5-[(4-fluoro-2,3-dihydro-1H-inden-1-yl)oxy]-N-(2-methylpyrimidin-4-yl)-3,4′-bipyridin-2′-amine], the IC50 was greater than 100 nM.

`CC(=O)Nc1cc(-c2cnc(N)c(C(=O)Nc3cccnc3)c2)ccn1` [Compound I-91, 2′-acetamido-6-amino-N-(pyridin-3-yl)-3,4′-bipyridine-5-carboxamide] yielded an IC50 of less than 10 nM.

For the compound `CC(=O)Nc1cc(-c2cncc(N(C)S(=O)(=O)N(C)C)c2)ccn1` [Compound I-458, N-{5-[(dimethylsulfamoyl)(methyl)amino]-3,4′-bipyridin-2′-yl}acetamide], the IC50 was in the range of 10 to 50 nM.
